Where two headings read alike, the source gives them in different places.
Legend:
[1] = Cytotoxicity determination in HepG2.2.15 cells (CCK-8); format: cell-based; conditions: human, 6 days of compound treatment, CCK-8, highest concentration 100 μM
In short: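 CC50 is from CCK-8 absorbance (450 nm, 630 nm reference) after 2.5 h with reagent. Before that, compounds were applied for six days, top concentration 100 μM, eight threefold dilutions, one mid-course medium change, to stably HBV-integrated HepG2.2.15 cells plated at 5,000/well in 2% FBS.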

HBV = HBV inhibitory activity: HBV DNA in the culture medium of HepG2.2.15 cells by q-PCR; format: cell-based; conditions: HepG2.2.15 cells, 6 days of compound treatment, HBV DNA in culture medium by q-PCR, highest concentration 10 μM, read-out: EC50
In short: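 Supernatant HBV DNA quantified by q-PCR after a 6-day compound exposure, with one mid-course medium change, of HepG2.2.15 cells (stably integrated HBV; 40,000 per well, 2% FBS). Eight-point 3-fold series topped at 10 μM for antiviral EC50; separate plates of 5,000 cells per well with 100 μM top give CC50.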

[2] = Hepatitis B virus, HepG2.2.15, 144 h

COC(=O)C1=C(C2CCN(S(=O)(=O)C3CCC(C(=O)OC(C)(C)C)CC3)CC2)NC(c2nccs2)=NC1c1ccc(F)cc1Cl (single isomer, unassigned) [Compound 312X, Methyl 6-(1-((4-(tert-butoxycarbonyl)cyclohexyl)sulfonyl)-piperidin-4-yl)-4-(2-chloro-4-fluorophenyl)-2-(thiazol-2-yl)-1,4-dihydropyrimidine-5-carboxylate]
CC50 at 6 days [1]: > 100000 nM | EC50 (HBV; [2]): 97 nM

COC(=O)C1=C([C@H]2CC[C@H](N(CCO)S(C)(=O)=O)CC2)NC(c2nccs2)=NC1c1ccc(F)c(F)c1Cl (single isomer, unassigned) [Compound 315D, (trans)-Methyl 4-(2-chloro-3,4-difluorophenyl)-6-(4-(N-(2-hydroxyethyl)methylsulfonamido)cyclohexyl)-2-(thiazol-2-yl)-1,4-dihydropyrimidine-5-carboxylate]
CC50 at 6 days [1]: 12600 nM | EC50 (HBV; [2]): 25 nM

COC(=O)C1=C(C2CCN(S(=O)(=O)C3CC(O)C3)CC2)NC(c2nccs2)=NC1c1ccc(F)cc1Cl (single isomer, unassigned) [Compound 335A, Methyl 4-(2-chloro-4-fluorophenyl)-6-(1-((3-hydroxycyclobutyl)sulfonyl)piperidin-4-yl)-2-(thiazol-2-yl)-1,4-dihydropyrimidine-5-carboxylate]
CC50 at 6 days [1]: 12200 nM | EC50 (HBV; [2]): 20 nM

CCOC(=O)C1=C(C2CCN(S(=O)(=O)[C@H]3C[C@H](C(=O)O)C3)CC2)NC(c2nccs2)=NC1c1ccc(F)c(F)c1C (single isomer, unassigned) [Compound 343A, (trans)-3-((4-(6-(3,4-difluoro-2-methylphenyl)-5-(ethoxycarbonyl)-2-(thiazol-2-yl)-3,6-dihydropyrimidin-4-yl)piperidin-1-yl)sulfonyl)cyclobutanecarboxylic Acid]
CC50 at 6 days [1]: 40800 nM | EC50 (HBV): 89 nM

CCOC(=O)C1=C([C@H]2CC[C@H](C(=O)O)CC2)NC(c2nccs2)=NC1c1ccc(F)c(F)c1Cl (single isomer, unassigned) [Compound 345A, (trans)-(R*)-4-(6-(2-Chloro-3,4-difluorophenyl)-5-(ethoxycarbonyl)-2-(thiazol-2-yl)-3,6-dihydropyrimidin-4-yl)cyclohexanecarboxylic Acid]
CC50 at 6 days [1]: 34100 nM | EC50 (HBV; [2]): 44 nM

CCOC(=O)C1=C(C2CCN(S(=O)(=O)CCO)CC2)NC(c2nccs2)=NC1c1ccc(F)c(F)c1Cl (single isomer, unassigned) [Compound 356B, Ethyl 4-(2-chloro-3,4-difluorophenyl)-6-(1-((2-hydroxyethyl)sulfonyl)piperidin-4-yl)-2-(thiazol-2-yl)-1,4-dihydropyrimidine-5-carboxylate]
CC50 at 6 days [1]: 12200 nM | EC50 (HBV; [2]): 6 nM

COCCNS(=O)(=O)[C@H]1CC[C@@H](C2=C(C(=O)OC)C(c3ccc(F)c(F)c3Cl)N=C(c3nccs3)N2)CC1 (single isomer, unassigned) [Compound 359B, (cis)-Methyl 4-(2-chloro-3,4-difluorophenyl)-6-(4-(N-(2-methoxyethyl)sulfamoyl)cyclohexyl)-2-(thiazol-2-yl)-1,4-dihydropyrimidine-5-carboxylate]
CC50 at 6 days [1]: 10500 nM | EC50 (HBV; [2]): 55 nM

COCCNS(=O)(=O)[C@H]1CC[C@H](C2=C(C(=O)OC)C(c3ccc(F)c(F)c3Cl)N=C(c3nccs3)N2)CC1 (single isomer, unassigned) [Compound 359D, (trans)-methyl 4-(2-chloro-3,4-difluorophenyl)-6-(4-(N-(2-methoxyethyl)sulfamoyl)cyclohexyl)-2-(thiazol-2-yl)-1,4-dihydropyrimidine-5-carboxylate]
CC50 at 6 days [1]: 12000 nM | EC50 (HBV; [2]): 5 nM

COC(=O)C1=C([C@H]2CC[C@H](S(=O)(=O)NCC(C)(C)C(=O)OC(C)(C)C)CC2)NC(c2nccs2)=NC1c1ccc(F)c(F)c1Cl (single isomer, unassigned) [Compound 361X, (trans)-methyl 6-(4-(N-(3-(tert-butoxy)-2,2-dimethyl-3-oxopropyl)sulfamoyl)cyclohexyl)-4-(2-chloro-3,4-difluorophenyl)-2-(thiazol-2-yl)-1,4-dihydropyrimidine-5-carboxylate]
CC50 at 6 days [1]: > 100000 nM | EC50 (HBV; [2]): 87 nM

CCOC(=O)C1=C([C@H]2CC[C@H](C(=O)O)CO2)NC(c2nccs2)=NC1c1ccc(F)cc1Cl (single isomer, unassigned) [Compound 363E, (trans)-6-(−6-(2-Chloro-4-fluorophenyl)-5-(ethoxycarbonyl)-2-(thiazol-2-yl)-3,6-dihydropyrimidin-4-yl)tetrahydro-2H-pyran-3-carboxylic Acid]
CC50 at 6 days [1]: > 100000 nM | EC50 (HBV): 296 nM

COCCS(=O)(=O)N1CCC(C2=C(C(=O)OC)C(c3ccc(F)cc3Cl)N=C(c3nccs3)N2)C1 (single isomer, unassigned) [Compound 365, Methyl 4-(2-chloro-4-fluorophenyl)-6-((R*)-1-((2-methoxyethyl)sulfonyl)pyrrolidin-3-yl)-2-(thiazol-2-yl)-1,4-dihydropyrimidine-5-carboxylate]
CC50 at 6 days [1]: 21800 nM | EC50 (HBV; [2]): 61 nM

COC(=O)C1=C(C23CC(NS(C)(=O)=O)(C2)C3)NC(c2nccs2)=NC1c1ccc(F)cc1Cl (single isomer, unassigned) [Compound 372Y, Methyl 4-(2-chloro-4-fluorophenyl)-6-(3-(methylsulfonamido)bicyclo[1.1.1]pentan-1-yl)-2-(thiazol-2-yl)-1,4-dihydropyrimidine-5-carboxylate]
CC50 at 6 days [1]: 31800 nM | EC50 (HBV; [2]): 15 nM

COC(=O)C1=C(C23CC(N(C[C@@H](O)CO)S(C)(=O)=O)(C2)C3)NC(c2nccs2)=NC1c1ccc(F)cc1Cl (single isomer, unassigned) [Compound 376C]
CC50 at 6 days [1]: 95000 nM | EC50 (HBV): 75 nM

CCOC(=O)C1=C([C@@H]2CCN(S(C)(=O)=O)[C@@H](CO)C2)NC(c2nccs2)=NC1c1ccc(F)cc1Cl (single isomer, unassigned) [Compound 379C, ethyl 4-(2-chloro-4-fluorophenyl)-6-((trans)-2-(hydroxymethyl)-1-(methylsulfonyl)piperidin-4-yl)-2-(thiazol-2-yl)-1,4-dihydropyrimidine-5-carboxylate]
CC50 at 6 days [1]: 32600 nM | EC50 (HBV; [2]): 55 nM

COC(=O)C1=C([C@H]2CC[C@H](O)CC2)NC(c2nccs2)=NC1c1cccc(F)c1Cl (single isomer, unassigned) [Compound 381A, (trans)-Methyl 4-(2-chloro-3-fluorophenyl)-6-(4-hydroxycyclohexyl)-2-(thiazol-2-yl)-1,4-dihydropyrimidine-5-carboxylate]
CC50 at 6 days [1]: 28500 nM | EC50 (HBV; [2]): 70 nM

COC(=O)C1=C(C2CCCN(S(C)(=O)=O)CC2)NC(c2nccs2)=NC1c1ccc(F)cc1Cl (single isomer, unassigned) [Compound 383A, Methyl 4-(2-chloro-4-fluorophenyl)-6-(1-(methylsulfonyl)azepan-4-yl)-2-(thiazol-2-yl)-1,4-dihydropyrimidine-5-carboxylate]
CC50 at 6 days [1]: 32900 nM | EC50 (HBV; [2]): 87 nM

COC(=O)C1=C([C@H]2CC[C@H](NS(=O)(=O)C3COC3)CC2)NC(c2nccs2)=NC1c1ccc(F)cc1Cl (single isomer, unassigned) [Compound 384B, (trans)-Methyl 4-(2-chloro-4-fluorophenyl)-6-(4-(oxetane-3-sulfonamido)cyclohexyl)-2-(thiazol-2-yl)-1,4-dihydropyrimidine-5-carboxylate]
CC50 at 6 days [1]: 34000 nM | EC50 (HBV; [2]): 65 nM
